This test deals with male db/db mice. In words: Antidiabetic efficacy of oral compound in male db/db mice (nonfasting serum glucose and triglycerides after 14 days). The format is in vivo. The conditions noted are these: for Serum triglycerides, Mean ± SEM / Serum glucose, Mean ± SD: 100 mg/kg/day oral gavage once daily for 2 weeks, nonfasting serum, N = 5 mice/group; for Serum triglycerides, Mean ± SEM: vehicle 220.8 ± 62.1; for Serum glucose, Mean ± SD: vehicle 735.0 ± 66.0; for Effect on nonfasting serum glucose relative to vehicle-treated mice (in words) / Effect on nonfasting serum triglycerides relative to vehicle-treated mice (in words): 100 mg/kg/day oral, 2 weeks. The text has this:
Male db/db mice have a defect in the receptor for the appetite-regulating protein leptin and consequently develop hyperphagia, obesity, insulin resistance, hyperglycemia, and hypertriglyceridemia. Furthermore, male db/db mice undergo progressive islet failure, resulting in a transition from hyperinsulinemia to insulin deficiency.
Male db/db mice (10 weeks old) were divided into weight-matched groups of 5 mice each. Age-matched male C57BL/6 mice were used as lean control animals. Mice received once-daily oral (gavage) doses of the vehicle (1% hydroxypropylmethylcellulose in water), Compound BI, Compound CF, or Compound DN for two weeks. Treatment groups and drug doses were as follows. • 1. Vehicle • 2. Compound BI 100 mg/kg/day • 3. Compound CF 100 mg/kg/day • 4. Compound DN 100 mg/kg/day
Nonfasting blood samples were collected after 14 days of treatment for determination of serum glucose, triglycerides, and free fatty acids.

As for `O=C(O)Cc1cccc(OCc2ccc(C(F)(F)F)cc2C(F)(F)F)c1` [Compound DN, 3-(2,4-Bis(trifluoromethyl)benzyloxy)phenylacetic acid], the “Serum triglycerides, Mean ± SEM” value stood at 157.2 ± 40.3 mg/dL; the “Serum glucose, Mean ± SD” value amounted to 396.0 ± 84.0 mg/dL; the “Effect on nonfasting serum glucose relative to vehicle-treated mice (in words)” value was “significantly reduced”; the “Effect on nonfasting serum triglycerides relative to vehicle-treated mice (in words)” value is reported as “significantly reduced”.

Regarding `Cc1cccc(C)c1COc1cccc(CC(=O)O)c1` [Compound CF, 3-(2,6-Dimethylbenzyloxy)phenylacetic acid], the “Serum triglycerides, Mean ± SEM” value is 90.5 ± 17.4 mg/dL; the “Serum glucose, Mean ± SD” value is listed as 441.0 ± 162.0 mg/dL; the “Effect on nonfasting serum glucose relative to vehicle-treated mice (in words)” value was “significantly reduced”; the “Effect on nonfasting serum triglycerides relative to vehicle-treated mice (in words)” value is on record as “significantly reduced”.

As for `Cc1cccc(C)c1COc1cccc(C(=O)CCC(=O)O)c1` [Compound BI, 4-(3-(2,6-Dimethylbenzyloxy)phenyl)-4-oxobutyric acid], the “Serum triglycerides, Mean ± SEM” value amounted to 85.8 ± 13.0 mg/dL; the “Serum glucose, Mean ± SD” value turned out to be 257.0 ± 57.0 mg/dL; the “Effect on nonfasting serum glucose relative to vehicle-treated mice (in words)” value is on record as “significantly reduced”; the “Effect on nonfasting serum triglycerides relative to vehicle-treated mice (in words)” value is listed as “significantly reduced”.

For the origin of these results see patent US20100234464A1, “COMPOUNDS FOR THE TREATMENT OF METABOLIC DISORDERS” (WELLSTAT THERAPEUTICS CORPORATION, priority 2006, published 2010).
